Reference: ChEMBL document CHEMBL5209567, “Membrane potential based assay for SLC2A9 using HEK-293 SLC2A9 OE cells” (2022)

Columns and labels:
[1] = molecular target: T1, Solute carrier family 2, facilitated glucose transporter member 9 (Homo sapiens, UniProt Q9NRM0); test: Substrate uptake by the Glucose Transporter Type 9 (GLUT9, SLC2A9) as assessed by the fluorescent FLIPR membrane potential dye in HEK-293 cells stably transfected with SLC2A9 isoform 2 (PubChem AID: 1794831); assay type: functional, cell-based, HEK293
T1 sequence (Q9NRM0 whole entry): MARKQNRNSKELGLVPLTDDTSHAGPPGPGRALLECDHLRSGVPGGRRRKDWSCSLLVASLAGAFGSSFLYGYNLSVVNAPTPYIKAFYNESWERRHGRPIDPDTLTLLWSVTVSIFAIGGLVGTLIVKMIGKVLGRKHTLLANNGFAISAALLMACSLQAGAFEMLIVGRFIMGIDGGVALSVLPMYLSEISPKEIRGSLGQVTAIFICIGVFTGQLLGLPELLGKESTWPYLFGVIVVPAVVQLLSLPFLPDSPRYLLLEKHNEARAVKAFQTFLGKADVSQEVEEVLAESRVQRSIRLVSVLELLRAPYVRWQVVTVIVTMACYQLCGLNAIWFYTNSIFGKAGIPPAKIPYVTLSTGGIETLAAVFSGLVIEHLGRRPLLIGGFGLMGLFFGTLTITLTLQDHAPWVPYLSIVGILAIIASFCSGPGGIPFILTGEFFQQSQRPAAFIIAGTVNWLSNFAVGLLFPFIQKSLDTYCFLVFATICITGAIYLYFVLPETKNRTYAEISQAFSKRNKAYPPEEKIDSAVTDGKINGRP

[2] = molecular target: T1, Solute carrier family 2, facilitated glucose transporter member 9; test: Substrate uptake by the Glucose Transporter Type 9 (GLUT9, SLC2A9) as assessed by the fluorescent FLIPR membrane potential dye in HEK-293 cells stably transfected with SLC2A9 isoform 1 (PubChem AID: 1794831); assay type: functional, cell-based, HEK293

Row | SMILES | EC50 ([1]; read-out: EC50) [µM] | EC50 [2] [µM] | EC50 ([1]; hek293)
1 | O=C(O)c1cc(=O)[nH]c(=O)[nH]1 [OROTIC ACID] | 1000 | 1000 | –
2 | Oc1nc(O)c2nc(O)[nH]c2n1 [URIC ACID] | – | 300 | Ec50 Cannot Be Calculated For Isoform 2
